# “And” between values parts separate entries of the source, which are not always exact repeats. Equal values may be shown once.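 48-hour exposure; five concentrations; linearly interpolated endpoints. At the GI50, growth is halved. Definition used: TGI = concentration required for complete inhibition of growth.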 Where a SMILES comes first, the peptide text is derived from it. The star is where a group is joined. Trt = c1ccc(C(c2ccccc2)(c2ccccc2)*)cc1; Cbz = O=C(OCc1ccccc1)*
# Experiments:
# Test in all cases: NCI anticancer screen, dose series, 48 h
# A498 renal = system: A498 renal
# HL-60(TB) leukemia = system: HL-60(TB) leukemia
# LOX IMVI melanoma = system: LOX IMVI melanoma
# M14 melanoma = system: M14 melanoma
# NCI-H226 lung = system: NCI-H226 lung
# OVCAR-8 ovarian = system: OVCAR-8 ovarian
# PC-3 prostate = system: PC-3 prostate
# SF-268 CNS = system: SF-268 CNS
# SNB-75 CNS = system: SNB-75 CNS
# TK-10 renal = system: TK-10 renal
Structure (SMILES),GI50 (A498 renal),TGI (A498 renal),GI50 (HL-60(TB) leukemia),TGI (HL-60(TB) leukemia),GI50 (LOX IMVI melanoma),TGI (LOX IMVI melanoma),GI50 (M14 melanoma),TGI (M14 melanoma) [µM],GI50 (NCI-H226 lung),TGI (NCI-H226 lung),GI50 (OVCAR-8 ovarian),TGI (OVCAR-8 ovarian),GI50 (PC-3 prostate),TGI (PC-3 prostate) [µM],GI50 (SF-268 CNS),TGI (SF-268 CNS) [µM],GI50 (SNB-75 CNS),TGI (SNB-75 CNS),GI50 (TK-10 renal),TGI (TK-10 renal)
C=CC(C)(O)CC/C=C(\CO)C(=O)OC1C(C)OC(O[C@](C)(C=C)CC/C=C(\CO)C(=O)O[C@H]2C[C@@]3(C(=O)OC4OC(CO)C(O)C(O)C4OC4OC(C)C(OC5OC(CO)C(O)C5O)C(OC5OC(CO)C(O)C(O)C5O)C4O)C(CC2(C)C)C2=CCC4[C@@]5(C)CC[C@H](OC6OC(COC7OC(C)C(O)C(O)C7OC7OCC(O)C(O)C7O)C(O)C(O)C6NC(C)=O)C(C)(C)C5CC[C@@]4(C)[C@]2(C)C[C@H]3O)C(O)C1O (some centres undefined),0.142 µM,0.585 µM,0.13 µM,2.53 µM,0.162 µM,0.82 µM,0.62 µM,2.29,0.363 µM,1.98 µM,0.372 µM,6.45 µM,0.078 µM,1.97,0.174 µM,0.893,0.154 µM,0.894 µM,0.097 µM,0.237 µM
COc1ccc2c(c1)/C(=N/OC(C)=O)c1c-2cnc2ccccc12,29.3 µM,82 µM,19.6 µM,67 µM,19 µM,38.6 µM,29.6 µM,> 100,33.5 µM,> 100 µM,38.4 µM,> 100 µM,21.3 µM,48,24 µM,68.7,37.4 µM,> 100 µM,20.4 µM,54.8 µM
CC(N1CCOCC1)C(O)(c1ccccc1)c1ccccn1 (centres undefined),,> 100 µM,,> 100 µM,,> 100 µM,,> 100,,> 100 µM,,> 100 µM,,> 100,,> 100,,> 100 µM,,> 100 µM
Cn1cc(C2=C(c3cn(CCCCC(=N)N)c4ccccc34)C(=O)NC2=O)c2ccccc21,> 25 µM,> 25 µM,16.7 µM,> 25 µM,> 25 µM,> 25 µM,> 25 µM,> 25,> 25 µM,> 25 µM,> 25 µM,> 25 µM,> 25 µM,> 25,> 25 µM,> 25,1.65 µM,> 25 µM,> 25 µM,> 25 µM
Cn1cc(-c2nc(N[C@@H]3CCCC[C@@H]3N)c(F)c3c2C(=O)NC3)cn1,1.72 µM and 2.45 µM,8.43 µM and 11.3 µM,9.21 µM and 11.2 µM,37 µM and 40.9 µM,2.95 µM and 3.81 µM,14.1 µM and 16.2 µM,1.56 µM and 1.67 µM,> 96.1,2.93 µM and 3.83 µM,23.9 µM and 49.7 µM,10.8 µM and 12.4 µM,66.1 µM and > 75.3 µM,9.43 µM and 13.3 µM,> 100,5.42 µM and 6.7 µM,> 100,2.14 µM and 2.87 µM,11.7 µM and 16.5 µM,4.5 µM and 6.16 µM,25.3 µM and 40.6 µM
CN1CCN(c2ccc3nc(-c4ccc(OCCCCN5CCN(CCCCN6C(=O)c7cccc8cccc(c78)C6=O)CC5)cc4)[nH]c3c2)CC1,> 100 µM,> 100 µM,25.1 µM,> 100 µM,37.3 µM,> 100 µM,> 100 µM,> 100,37.6 µM,> 100 µM,48.6 µM,> 100 µM,69.3 µM,> 100,> 100 µM,> 100,28.9 µM,> 100 µM,37.4 µM,> 100 µM
O=C(/C=C/c1ccco1)c1ccc(Nc2nc(Nc3ccc(F)cc3)nc(Nc3ccc(F)cc3)n2)cc1,7.28 µM,> 100 µM,17.5 µM,52.9 µM,17.6 µM,45.3 µM,12.8 µM,30.5,53.3 µM,> 100 µM,17.4 µM,46.1 µM,6.83 µM,21.9,7.49 µM,30.8,30.7 µM,91.7 µM,48.4 µM,> 100 µM
O=S(=O)(O)SCCNCCCCCC1CCCCC1,,40.6 µM,,> 100 µM,,4.78 µM,,18.4,,30.6 µM,,33.1 µM,,22.7,,23.5,,16.3 µM,,20.7 µM
COc1cc(/C=N/NC(=O)c2ccccc2Nc2cccc(C(F)(F)F)c2)cc(OC)c1OC,1.93 µM,6.76 µM,2.01 µM,4.73 µM,4.55 µM,15.4 µM,3.35 µM,14.4,7.45 µM,25.2 µM,4.81 µM,11.6 µM,3.34 µM,> 28.1,2.05 µM,7.99,1.54 µM,10.4 µM,2.36 µM,8.74 µM
O=C(CCCCCCCCC(=O)N/N=C\c1cc(Cl)ccc1O)N/N=C\c1cc(Cl)ccc1O,> 33.1 µM,> 80.9 µM,0.164 µM,0.571 µM,0.149 µM,7.41 µM,0.221 µM,8.69,0.5 µM,> 36.2 µM,0.231 µM,28.9 µM,0.864 µM,> 100,0.223 µM,> 100,15.6 µM,> 65.9 µM,3.89 µM,> 75.5 µM
CCOC(=O)c1c(C)n(Cc2ccccc2)c2c1cc1oc(=O)c(=O)n3cnc2c13,11 µM,49.8 µM,14.5 µM,> 50 µM,8.74 µM,22.3 µM,18.3 µM,> 50,20.3 µM,> 50 µM,22.8 µM,> 50 µM,10.3 µM,> 50,15.3 µM,> 50,28.5 µM,> 50 µM,15.7 µM,42.6 µM
COC(=O)/C(=N\Nc1nnc(C)n1N)C(C#N)c1ccccc1 (centres undefined),,> 100 µM,,> 100 µM,,> 100 µM,,> 100,,> 100 µM,,> 100 µM,,> 100,,> 100,,> 100 µM,,> 100 µM
Cc1cc(Br)cc(C)c1NC(=O)C(=O)Nn1c(=S)[nH]c2ccccc2c1=O,,> 100 µM,,> 100 µM,,> 100 µM,,> 100,,> 100 µM,,> 100 µM,,> 100,,> 100,,> 100 µM,,> 100 µM
CCCOC(=O)C1C2CCC(O2)C1C(=O)O (centres undefined),,> 100 µM,,> 100 µM,,> 100 µM,,> 100,,> 100 µM,,> 100 µM,,> 100,,> 100,,> 100 µM,,> 100 µM
COC(=O)C(CSC(c1ccccc1)(c1ccccc1)c1ccccc1)NC(=O)C(CC(N)=O)NC(=O)OCc1ccccc1 (stereo not drawn) (Cbz-Asn-Cys(Trt)-OMe; configuration not given here),3.67 µM,13.8 µM,2.1 µM,4.39 µM,1.83 µM,3.51 µM,1.68 µM,3.69,5.43 µM,22 µM,3.16 µM,17 µM,3.57 µM,17.2,3.08 µM,13.2,5.43 µM,24.6 µM,5.69 µM,26.8 µM
CNC(c1ccncc1)C(NC)c1ccncc1 (centres undefined),,> 100 µM,,> 100 µM,,> 100 µM,,> 100,,> 100 µM,,> 100 µM,,> 100,,> 100,,> 100 µM,,> 100 µM
Cc1ccc(S(=O)(=O)NC(CO)C(=O)O)cc1 (centres undefined),,> 100 µM,,> 100 µM,,> 100 µM,,> 100,,> 100 µM,,> 100 µM,,> 100,,> 100,,> 100 µM,,> 100 µM
Cc1c(Cl)cccc1NC(=O)c1sc2nc3c(cc2c1N)CCCC3,0.413 µM,> 100 µM,0.305 µM,,0.576 µM,> 100 µM,0.39 µM,> 100,> 100 µM,> 100 µM,3.42 µM,> 100 µM,1.11 µM,> 100,0.786 µM,> 100,0.282 µM,> 66.1 µM,> 100 µM,> 100 µM
O=C1/C(=C\c2ccccc2)C2OCC=C3CN4CCC56c7ccccc7N1C5C2C3CC46 (centres undefined),3.56 µM,48 µM,3.47 µM,20.9 µM,4.9 µM,49.8 µM,1.94 µM,3.72,11.3 µM,> 100 µM,85.8 µM,> 100 µM,18 µM,> 100,79.3 µM,> 100,14.7 µM,> 100 µM,7.23 µM,73.3 µM
